Data set [1] concerns Human SH-SY5Y dopaminergic cells. As to the kind of experiment: 6-OHDA in vitro model of Parkinson's Disease, cell viability (MTT). The data set is classed as cell-based. To be noted: tryptamine 1 μM 1 h, then 6-OHDA 30 μM 24 h; for reduction in dopaminergic cell death in the presence of Ritanserin: Rit 1 μM 1 h; for percentage of viable dopaminergic neurons: vs 6-OHDA alone. The text has this:
(§1) Example 9: DMT, DET, DPT and 5-MeO-DMT prevent dopaminergic cell death and inflammation (Only Measured for DMT) caused by the potent and selective dopaminergic toxin 6-OHDA in an in vitro model of Parkinson's Disease. These desired effects are preserved in the presence of the 5-HT2A antagonist Ritanserin (Rit). The Human SH-SY5Y dopaminergic cell line was obtained from Sigma-Aldrich, cultured in 96-well plates and propagated in RPMI medium containing glutamine (1%) and 15% of fetal bovine serum (FBS) plus antibiotic (gentamicin), under humidified 5% CO2 and 95% air. On attaining semiconfluence, separate groups of cells were treated with either: a) one of the four hallucinogenic tryptamines at 1 μM for 1 h, followed by 6-OHDA at 30 μM for 24 hours; or b) Rit at 1 μM for 1h, followed one of the four hallucinogenic tryptamines at 1 μM for an additional hour, at which point 6-OHDA was administered, also at 30 μM, and kept for 24 hours. Vehicle-treated cultures were used as controls. Cell cultures were then processed to assess cell viability (for all four tryptamines) and quantification of nitrite concentration (only performed in the DMT and DMT+Rit tests). Cell viability was measured using the MTT assay (Roche Diagnostic, GmbH), which is based on the ability of viable cells to reduce yellow MTT to blue formazan. After the aforementioned 24 h period in the presence of the different tryptamines or the respective tryptamine+Rit combinations, cells were incubated with MTT (0.5 mg/ml, 4 h) and subsequently solubilized in 10% SDS/0.01 M HCl for 12 h in the dark. The extent of MTT reduction was quantified by absorbance measurement at the 595 nm wavelength, as indicated in the instructions provided by the manufacturer. Nitrite quantification: Due to access to equipment problems at the time the experiments with DET, DPT and 5-MeO-DMT were conducted, the assessment of nitrite levels in the medium could only be done for the DMT experiments. These determinations were carried out as described in Example 8. Results from the cell viability tests are expressed as the percentage of viable dopaminergic cells measured. Results from nitrite determinations are expressed as actual concentrations (μM). Results from both techniques are presented in bar graphs.

Data set [2] concerns astrocytes. Put plainly: LPS-induced nitrite production (Griess) in primary astrocyte cultures. The note with it: for reduction of LPS-induced nitrite in the presence of Rit: Rit 1 μM 1 h before tryptamine 1 μM, then LPS 10 μg/mL 24 h; for LPS-induced nitrite increases: tryptamine 1 μM before LPS 10 μg/mL, 24 h, vs LPS alone. The data set is classed as cell-based, rat. Here is the method:
(§2) Example 8: DMT, DET, DPT and 5-MeO-DMT administration in vitro prevents inflammation in rat primary glial cells. […] Rat primary glial cell cultures were prepared from the cerebral cortex of 3 day old rats which were dissected, dissociated, and incubated with 0.25% trypsin/EDTA at 37° C. for 1 h. After centrifugation, the pellet was washed three times with HBSS (Gibco) and the cells were plated in poly-D-lysine (20 μg/mL) pretreated flasks (75 cm2). After 7-10 days, the flasks were agitated in an orbital shaker for 4 h at 230 rpm at 37° C. and non-adherent microglial cells were isolated and plated. Then Dulbecco's Modified Eagle's Medium (DMEM) was added to the flasks, which were agitated in a horizontal shaker at 260 rpm at 37° C. After overnight agitation, the supernatant (oligodendrocytes and some remaining microglial cells) was removed, and astrocytes (adherent cells) were collected. The purity of the cultures was >95%, as determined by immunofluorescence analysis using an anti-glial fibrillary acidic protein (GFAP; clone G-A-5; Sigma-Aldrich) antibody to identify astrocytes, and an anti-Iba1 (Wako Catalog No. 019-19741) antibody to identify microglial cells. On attaining semiconfluence, cells were administered each of the test tryptamines at 1 μM or with the combination test tryptamine+Ritanserin (Rit at 1 μM) 2 h before exposure to lipopolysaccharide (LPS, 10 μg/mL; Sigma-Aldrich) and kept in the presence of each drug or drug combination for 24 h. In combination studies, Rit was added to medium 1h before administration of the corresponding tryptamine. Vehicle-treated cultures were used as a control. After the 24 h drug exposure period, cultures were tested to assess nitrite release. To quantify nitrite concentrations in culture medium, supernatants of glial cultures were collected and mixed with an equal volume of Griess reagent (Sigma-Aldrich). Samples were then incubated at room temperature for 15 min and absorbance was measured at 540 nm on a microplate reader. Results are expressed as the mean±SEM of six replications in three different experiments
Background: The Griess reaction detects nitrite, a stable product of nitric oxide.

Data set [3] relates to microglial cells. Put plainly: LPS-induced nitrite production (Griess) in primary microglial cultures. To be noted: microglia; for reduction of LPS-induced nitrite in the presence of Rit: Rit 1 μM 1 h before tryptamine 1 μM, then LPS 10 μg/mL 24 h; for LPS-induced nitrite increases: tryptamine 1 μM before LPS 10 μg/mL, 24 h, vs LPS alone. The data set is classed as cell-based, rat. Here is the method:
as §2

The nature of data set [4]: 6-OHDA in vitro model of Parkinson's Disease, cell viability (MTT). The class given is cell-based, human. The note with it: human, SH-SY5Y dopaminergic cells, 6-OHDA alone 30 μM 24 h.
Source text: as §1

Data set [5] concerns dopaminergic neurons of the Substantia nigra pars compacta. Put plainly: 6-OHDA in vivo model of Parkinson's Disease (injection into Substantia nigra pars compacta). The arrangement: species or system C57BL/6 mice. The note with it: 5 μg 6-OHDA alone into SNpc, 3 weeks. Here is the method: Example 10: DMT administration prevents dopaminergic cell death in a in vivo model of Parkinson's disease. Adult male C57BL/6 mice (8-12 weeks old) were used in this study. Animals were properly anaesthetized and placed in a stereotaxic apparatus (Kopf Instruments, CA). 6-OHDA (5 μg in […] PBS) was injected into the right side of the Substantia nigra pars compacta (SNpc) (coordinates from Bregma: posterior −3.2 mm; lateral +2.0 mm; ventral: +4.7 mm, according to the atlas of Paxinos and Franklin, The Mouse Brain in Stereotaxic Coordinates. 4. San Diego: Academic Press; 2012). Control animals of the same age were injected with PBS. A third group received an injection with 6-OHDA (5 μg) combined with DMT (0.1 μg) in […] PBS. Mice were then housed individually to recover and sacrificed 3 weeks later. At this point animals were anaesthetized and perfused transcardially with a 4% paraformaldehyde solution. The brains were removed, postfixed in the same solution at 4° C. overnight, cryoprotected in 20% sucrose, frozen, and 30 μm coronal sections were obtained in a cryostat. Free-floating sections were processed for double fluorescent immunohistochemistry. […] Neuronal integrity and specifically dopaminergic cell death was assessed by counting the percentage of TH^+ cells in the SNpc following a stereological approach. […] Images were analyzed using computer-assisted image analysis software (Soft Imaging System Corporation, Lakewood, Colo.). Results were expressed as the percentage of dopaminergic cell loss in the SNpc.

For `CCCN(CCC)CCc1c[nH]c2ccccc12` [DPT, N,N-dipropyltryptamine], in data set [1], the “reduction in dopaminergic cell death in the presence of Ritanserin” value (“reduction in dopaminergic cell death” for short) was “maintained” and the “percentage of viable dopaminergic neurons” value was “significant increases”. Also, in data set [2], the “reduction of LPS-induced nitrite in the presence of Rit” value (“reduction of LPS-induced nitrite” for short) is on record as “maintained” and the LPS-induced nitrite increases entry is “significantly reduced”. Further, in data set [3], the “reduction of LPS-induced nitrite” value was “maintained” and the LPS-induced nitrite increases result is listed as “significantly reduced”.
Turning to `CCN(CC)CCc1c[nH]c2ccccc12` [DET, N,N-diethyltryptamine], in data set [1], the “reduction in dopaminergic cell death” value is on record as “maintained” and the “percentage of viable dopaminergic neurons” value is “significant increases”. Besides, in data set [2], the “reduction of LPS-induced nitrite” value is “maintained” and the LPS-induced nitrite increases entry is recorded as “significantly reduced”. Moreover, in data set [3], the “reduction of LPS-induced nitrite” value is given as “maintained” and the LPS-induced nitrite increases result is recorded as “significantly reduced”.
Broadly, the viability is a per cent measure of how many cells are alive, often set against a control. With `NCCc1cc(O)c(O)cc1O` [6-OHDA, 6-hydroxy-dopamine, reference compound], in data set [4] (DET, DPT and 5-MeO-DMT experiments, read-out: cell viability, of the reference control value), the viability at 24 h, 30 μM is about 60%. Moreover, in data set [4] (DMT experiments (graph A.1), read-out: reduction in the number of viable dopaminergic cells compared to vehicle treated cultures), the cytotoxicity at 24 h, 30 μM is 50%. In addition, the “average percentage of dopaminergic cell loss in the SNpc” value in data set [5] worked out at 60%.
As for `COc1ccc2[nH]cc(CCN(C)C)c2c1` [5-MeO-DMT, 5-methoxy-N,N-dimethyltryptamine], in data set [1], the “reduction in dopaminergic cell death” value is given as “maintained” and the “percentage of viable dopaminergic neurons” value is on record as “significant increases”. Also, in data set [2], the “reduction of LPS-induced nitrite” value is recorded as “maintained” and the LPS-induced nitrite increases entry is “significantly reduced”. Further, in data set [3], the “reduction of LPS-induced nitrite” value is given as “maintained” and the LPS-induced nitrite increases result is “significantly reduced”.

The values are drawn from patent US11723894B2, “Combination product for the treatment of neurological and/or psychiatric disorders” (Consejo Superior de Investigaciones Cientificas (CSIC), priority 2017, dated 2023).
